Experimental data published in PMC5537305, “Photo-enhanced Aqueous Solubilization of an Azo-compound” (Scientific Reports, 2017).
≈ marks a conversion by molar mass, not a printed value.

How the values were obtained:
Type in all cases: physicochemical
[1] = Photoinduced cis-trans isomerization of 3 in water containing 1% MeOH (HPLC peak areas)
Procedure: To confirm the potential usefulness of this strategy for improving aqueous solubility, we focused on kinase inhibitor 3 [31] (Fig. S2) as representative of pharmaceutical compounds, because the 518 human protein kinases include important drug targets, and the molecular structures of many kinase inhibitors tend to be rather similar. […]
Table S2. Photoinduced isomerization of 3
Light Time (min) cis ratio (%) trans ratio (%)
Compound 3 (10 µM) in a mixture of water and MeOH (1%) was successively exposed to white light and to a 365 nm mercury lamp (0.5 mW/cm2). The cis-trans ratio was calculated from the peak areas in HPLC. […]
Physicochemical properties
The UV-visible absorption spectra of the cis and trans isomers were determined on a UV-visible spectrometer (Shimano, UV-2400PC). Sample solutions in quartz cells were irradiated with a 365 nm mercury lamp (4 W, UVP compact UV lamp, 0.5 mW/cm2), LED UV light (3.3 W, CCS HLV-24UV365-4WNRBTNJ, 344 mW/cm2), or white LED light (5 W, Nikki Trading Corp., NLSS05BM, 68 and 54 mW/cm2 at 450 and 540 nm, respectively) for the indicated times at room temperature. […]

[2] = Aqueous dissolution in the dark of UV-irradiated crystals of 3; settings: for cis ratio contained in the solution, on average: dissolved in the dark; for cis ratio / solubility at 1 h: 37 °C, 1 h; for solubility at 1 h: phosphate buffer, thermodynamic from solid, read-out: Aqueous solubilized 3
Description: At the photostationary state under UV irradiation, the equilibria shown in Fig. 3a should be in balance. Here, we are interested in the transient process, i.e., how cis-3 in solution increases when UV irradiation is started. There are two possible routes for generating cis-3 in solution from trans-3 in the solid state: route (i) and (ii). Route (i) is clearly possible, because the process trans solution → cis solution is easily driven by UV irradiation (Fig. S3a). The remaining question is whether cis isomerization of solid 3 is induced under UV irradiation, that is, whether route (ii) also operates. To answer this question, we investigated the aqueous dissolution in the dark of UV-irradiated crystals of 3. The UV-irradiated crystals were clearly more soluble than the unirradiated crystals (Fig. 3b and Table S7). In addition, the cis ratio of UV-irradiated crystals contained in the solution was higher than that of unirradiated crystals (14% vs 4% on average, Table S7). […] Therefore, we conclude that routes (i) and (ii) both operate upon UV irradiation.
Figure 3 (a) Possible equilibria and routes for generating cis-3 in solution. (b) Kinetics of aqueous dissolution of UV-irradiated crystals of 3, measured in the dark. Crystals of 3 were irradiated with 365 nm LED light (344 mW/cm^2) at 37 °C for 3 h. The UV-irradiated crystals and unirradiated crystals were each shaken with phosphate buffer in the dark at 37 °C for 1 h. Data are the mean ± SD of three individual experiments. The asterisk indicates a significant difference (*p < 0.05) from the unirradiated crystals according to the unpaired, two-sided Student’s t-test. […]
Table S7. Aqueous dissolution of UV-irradiated crystals of 3 measured in the dark, and the cis ratio contained […]
Unirradiated crystals UV-irradiated crystals entry Aqueous solubilized 3 cis ratio (%) Aqueous solubilized 3 cis ratio (%) […]
Crystals of 3 were irradiated with 365 nm LED light (344 mW/cm2) at 37 °C for 3 h. It should be noted that […]
The UV-irradiated crystals and unirradiated crystals were each shaken in phosphate buffer in the dark at 37 °C for 1 h.

[3] = Aqueous solubilization of 3 under irradiation at various wavelengths (xenon flash lamp, 96-well plate); settings: for solubility at 1 h: phosphate buffer, 21 °C, pH 7.4, aqueous buffer, thermodynamic from solid, read-out: Aqueous solubilized 3; for solubility at 1 h / Cis ratio: 1 h
Procedure: Table S4. Aqueous solubilization and cis ratio of 3 under irradiation at various wavelengths through filters of […]
Illumination was performed with a xenon lamp using repeated cycles of irradiation and shaking (5000 flashes, then shaking for 10 sec) through filters of various bandwidths at room temperature (20-22 °C) for 1 h. The cis ratio in the aqueous solution was evaluated by HPLC immediately after filtration, based on peak area. […]
For irradiation at various UV wavelengths, 3 (about 0.1 mg) was ground and taken up in 1/15 M phosphate buffer (pH 7.4, 0.2 mL) in a well of a 96-well white plate. Illumination over a range of wavelength from 355-540 nm was performed using a plate reader EnVision equipped with a xenon flash lamp (35 W, 500 Hz), with excitation filters of appropriate bandwidths. A protocol of irradiation and shaking cycles (5000 flashes, then shaking for 10 sec) was repeated for 1 h at room temperature (20-22 °C). Then, the suspension was filtered through a Millipore Millex-LG (0.20 µm).

[4] = 10 µM in water/MeOH (1%), step 1: visible (white light) 10 min
[5] = step 2: UV 365 nm mercury lamp 0.5 mW/cm2, 10 min
[6] = step 4: UV 10 min (second UV exposure)
[7] = wavelength 380 nm, bandwidth 10 nm, room temperature
[8] = wavelength 405 nm, bandwidth 8 nm, room temperature
[9] = wavelength 450 nm, bandwidth 8 nm, room temperature
[10] = wavelength 485 nm, bandwidth 14 nm, room temperature
[11] = wavelength 535 nm, bandwidth 25 nm, room temperature
[12] = wavelength 540 nm, bandwidth 8 nm, room temperature

- cis ratio [1, 4]: 20.3%
- trans ratio [1, 4]: 79.7%
- cis ratio [1, 5]: 84.8%
- trans ratio [1, 5]: 15.2%
- cis ratio ([1]; step 3: visible 12 min): 18.3%
- trans ratio ([1]; step 3: visible 12 min): 81.7%
- cis ratio [1, 6]: 86.9%
- trans ratio [1, 6]: 13.1%
- cis ratio ([1]; step 5: visible 20 min): 19.4%
- trans ratio ([1]; step 5: visible 20 min): 80.6%
- cis ratio contained in the solution, on average ([2]; UV-irradiated crystals): 14%
- cis ratio ([2]; UV-irradiated crystals, entry 1, dark): 21%
- cis ratio ([2]; UV-irradiated crystals, entry 2, dark): 14%
- cis ratio ([2]; UV-irradiated crystals, entry 3, dark): 7%
- cis ratio ([2]; Unirradiated crystals, entry 1, dark): 5%
- cis ratio ([2]; Unirradiated crystals, entry 2, dark): 3%
- cis ratio ([2]; Unirradiated crystals, entry 3, dark): 4%
- solubility at 1 h ([2]; aqueous buffer, Unirradiated crystals, entry 2, dark): 2.6 µg/mL (≈ 9.24 µM)
- solubility at 1 h ([2]; pH 7.4, aqueous buffer, UV-irradiated crystals (365 nm LED 344 mW/cm2, 37 °C, 3 h), entry 1, dark): 3.7 µg/mL (≈ 13.2 µM)
- solubility at 1 h ([2]; pH 7.4, aqueous buffer, UV-irradiated crystals, entry 2, dark): 3.4 µg/mL (≈ 12.1 µM)
- solubility at 1 h ([2]; pH 7.4, aqueous buffer, UV-irradiated crystals, entry 3, dark): 3.2 µg/mL (≈ 11.4 µM)
- solubility at 1 h ([2]; pH 7.4, aqueous buffer, Unirradiated crystals, entry 1, phosphate buffer, dark): 2.8 µg/mL (≈ 9.95 µM)
- solubility at 1 h ([2]; pH 7.4, aqueous buffer, Unirradiated crystals, entry 3, dark): 3 µg/mL (≈ 10.7 µM)
- cis ratio contained in the solution, on average ([2]; unirradiated crystals): 4%
- trans ratio at photostationary state (maximum) ([3]; irradiation at 535 nm): 93%
- solubility at 1 h ([3]; wavelength 355 nm, bandwidth 40 nm, room temperature (20-22 °C)): 4.8 µg/mL (≈ 17.1 µM)
- solubility at 1 h [3, 7]: 2.8 µg/mL (≈ 9.95 µM)
- solubility at 1 h [3, 8]: 2.4 µg/mL (≈ 8.53 µM)
- solubility at 1 h [3, 9]: 0.75 µg/mL (≈ 2.67 µM)
- solubility at 1 h [3, 10]: 0.47 µg/mL (≈ 1.67 µM)
- solubility at 1 h [3, 11]: 0.57 µg/mL (≈ 2.03 µM)
- solubility at 1 h [3, 12]: 0.28 µg/mL (≈ 0.995 µM)
- Cis ratio ([3]; wavelength 355 nm, bandwidth 40 nm, room temperature): 90%
- Cis ratio [3, 7]: 90%
- Cis ratio [3, 8]: 78%
- Cis ratio [3, 9]: 44%
- Cis ratio [3, 10]: 20%
- Cis ratio [3, 11]: 7%
- Cis ratio [3, 12]: 7%
SMILES: CC(C)n1nc(/N=N/c2ccccc2)c2c(N)ncnc21 [Compound 3]
